Publication PMC5147771, “High-Resolution Genetics Identifies the Lipid Transfer Protein Sec14p as Target for Antifungal Ergolines” (PLoS Genetics, 2016)
Entries after “also recorded” stand apart in the source; their conditions may differ. Like-named read-outs stand apart in the source and are kept apart here.

Columns and labels:
C. neoformans ATCC 36556 = test: C. neoformans growth inhibition (CLSI M27-A3 broth microdilution); type: cell-based; conditions: for MIC: Cryptococcus neoformans, ATCC36556, 72 h; for C. neoformans growth inhibition (in words): clinical isolates ATCC 36556 and ATCC 90113, tested dose range
Excerpt: (§1) Sec14p is reported to be essential for virulence as well as for growth in C. neoformans. The S. cerevisiae and C. neoformans proteins show 53% similarity by pair-wise alignment with higher conservation of the residues in the lipid-binding pocket (S2 Fig). Furthermore, three of the four sites identified to be critical for NGx04 sensitivity, are conserved (S2 Fig). In combination with the current high unmet medical need related to Cryptococcus infections we prioritized testing of NGx04 and 18 related ergoline scaffold analogs against this pathogen. Two clinical isolates of C. neoformans (ATCC 36556 and ATCC 90113) were plated in triplicates on increasing drug concentrations and MIC-2 (50% inhibition) and MIC-0 (no visible fungal growth) concentrations were scored after 72 hrs. (Fig 5).
(§2) C. neoformans strains ATCC 36556, a lung isolate, and ATCC 90113, a cerebrospinal fluid isolate, were purchased from ATCC, Manassas, VA (USA). BPY22 was obtained from.
(§3) Antifungal susceptibility testing was conducted according to the Clinical and Laboratory Standards Institute (CLSI) guidelines for broth microdilution assay M27-A3. Testing was performed in RPMI-1640 (HyClone) with 2.05 mM glutamine, phenol red, without bicarbonate and buffered with 0.165 mol/l 3-(N-morpholino) propanesulfonic acid (MOPS). The medium was adjusted to pH 7.0 and sterilized with a 0.2 μm filter. Two endpoints were recorded: MIC-0 (complete inhibition with no visible fungal growth) and MIC-2 (prominent inhibition corresponding to >50% growth reduction).

C. neoformans ATCC 90113 = test: as above; type: cell-based; conditions: for MIC: Cryptococcus neoformans, ATCC90113, 72 h
Excerpt: as §1, §2, §3

[1] = 50% inhibition, 72 h, triplicate values printed singly, read-out: ATCC36556 MIC-2
[2] = no visible fungal growth, 72 h, triplicate values printed singly, read-out: ATCC36556 MIC-0
[3] = 50% inhibition, 72 h, triplicate values printed singly, read-out: ATCC90113 MIC-2
[4] = no visible fungal growth, 72 h, triplicate values printed singly, read-out: ATCC90113 MIC-0
[5] = 50% inhibition, 72 h, triplicate values printed singly
[6] = no visible fungal growth, 72 h, triplicate values printed singly

With CN1CC(C(=O)O)CC2c3cccc4c3C(CC21)CN4C(=O)OCc1ccccc1 (centres unmarked) [NGx18] the MIC (C. neoformans ATCC 36556; [1]) was > 50 µg/mL, the MIC (C. neoformans ATCC 36556; [2]) was > 50 µg/mL and the MIC (C. neoformans ATCC 90113; [3]) was > 50 µg/mL. The MIC (C. neoformans ATCC 90113; [4]) was > 50 µg/mL.
C[C@@H]1[C@H](O)[C@@H](C)/C=C/C=C/C=C/C=C/C=C/C=C/C=C/[C@H](O[C@@H]2O[C@H](C)[C@@H](O)[C@H](N)[C@@H]2O)C[C@@H]2O[C@](O)(C[C@@H](O)C[C@@H](O)[C@H](O)CC[C@@H](O)C[C@@H](O)CC(=O)O[C@H]1C)C[C@H](O)[C@H]2C(=O)O [Amphotericin B, reference compound] was tested, and the “ATCC36556 MIC-2” value (C. neoformans ATCC 36556; [5]) was 0.1 µg/mL, the MIC (C. neoformans ATCC 36556; [1]) was 0.2 µg/mL and the MIC (C. neoformans ATCC 36556; [2]) was 0.2 µg/mL. For the same compound, the “ATCC36556 MIC-0” value (C. neoformans ATCC 36556; [6]) was 0.4 µg/mL, the MIC (C. neoformans ATCC 90113; [3]) was 0.8 µg/mL and the MIC (C. neoformans ATCC 90113; [4]) was 1.6 µg/mL.
COC(=O)[C@@H]1C[C@@H]2c3cc([N+](=O)[O-])cc4c3[C@H](C[C@H]2N(C)C1)CN4C(=O)OCC(Cl)(Cl)Cl [NGx09] was tested, and the MIC (C. neoformans ATCC 36556; [2]) was > 50 µg/mL, the “C. neoformans growth inhibition (in words)” value (C. neoformans ATCC 36556) was “inhibit C. neoformans growth” and the MIC (C. neoformans ATCC 90113; [4]) was > 50 µg/mL.
In the case of COC(=O)[C@@H]1C[C@@H]2c3cc([N+](=O)[O-])cc4c3[C@H](C[C@H]2N(C)C1)CN4C(C)=O [NGx11], the MIC (C. neoformans ATCC 36556; [1]) is reported as 25 µg/mL, the MIC (C. neoformans ATCC 36556; [2]) is reported as > 50 µg/mL and the MIC (C. neoformans ATCC 90113; [3]) is reported as > 50 µg/mL. The MIC (C. neoformans ATCC 90113; [4]) was > 50 µg/mL.
With COC(=O)[C@@H]1C[C@@H]2c3c([N+](=O)[O-])ccc4c3[C@H](C[C@H]2N(C)C1)CN4C(=O)OCC(Cl)(Cl)Cl [NGx19] the “ATCC36556 MIC-2” value (C. neoformans ATCC 36556; [5]) was 13 µg/mL, the MIC (C. neoformans ATCC 36556; [1]) was 12.5 µg/mL and the MIC (C. neoformans ATCC 36556; [2]) was 50 µg/mL. For the same compound, the “C. neoformans growth inhibition (in words)” value (C. neoformans ATCC 36556) was “inhibit C. neoformans growth”, the “ATCC36556 MIC-0” value (C. neoformans ATCC 36556; [6]) was 25 µg/mL and the “ATCC90113 MIC-2” value (C. neoformans ATCC 90113; [5]) was 6.3 µg/mL. The MIC (C. neoformans ATCC 90113; [3]) was 6.25 µg/mL and the MIC (C. neoformans ATCC 90113; [4]) was > 50 µg/mL.
COC(=O)C1CC2c3cccc4c3C(CC2N(C(C)C)C1)CN4C(=O)OC(C)(C)C (centres unmarked) [NGx15] was tested, and the MIC (C. neoformans ATCC 36556; [1]) was > 50 µg/mL, the MIC (C. neoformans ATCC 36556; [2]) was > 50 µg/mL and the MIC (C. neoformans ATCC 90113; [3]) was > 50 µg/mL. For the same compound, the MIC (C. neoformans ATCC 90113; [4]) was > 50 µg/mL.
For COC(=O)[C@@H]1C[C@@H]2c3cc(F)cc4c3[C@H](C[C@H]2N(C)C1)CN4C(C)=O [NGx06], the MIC (C. neoformans ATCC 36556; [1]) was 50 µg/mL, the MIC (C. neoformans ATCC 36556; [2]) was > 50 µg/mL and the MIC (C. neoformans ATCC 90113; [3]) was > 50 µg/mL. The MIC (C. neoformans ATCC 90113; [4]) was > 50 µg/mL.
In the case of CN1C[C@H](C(=O)O)C[C@@H]2c3cccc4c3[C@H](C[C@H]21)CN4C(=O)OC(C)(C)C [NGx01], the MIC (C. neoformans ATCC 36556; read-out: ATCC36556 MIC-0) is reported as > 50 µg/mL, the MIC (C. neoformans ATCC 36556; read-out: ATCC36556 MIC-2) is reported as > 50 µg/mL and the MIC (C. neoformans ATCC 90113; read-out: ATCC90113 MIC-0) is reported as > 50 µg/mL. The MIC (C. neoformans ATCC 90113; read-out: ATCC90113 MIC-2) was > 50 µg/mL.
In the case of COC(=O)[C@@H]1C[C@@H]2c3cccc4c3[C@H](C[C@H]2N(C)C1)CN4C(=O)OCC(Cl)(Cl)Cl [NGx16], the MIC (C. neoformans ATCC 36556; [1]) is reported as 13 µg/mL, the MIC (C. neoformans ATCC 36556; [2]) is reported as 50 µg/mL and the “C. neoformans growth inhibition (in words)” value (C. neoformans ATCC 36556) is reported as “inhibit C. neoformans growth”. For the same compound, the “ATCC36556 MIC-0” value (C. neoformans ATCC 36556; [6]) was > 50 µg/mL, the MIC (C. neoformans ATCC 90113; [3]) was 13 µg/mL and the MIC (C. neoformans ATCC 90113; [4]) was 50 µg/mL. For the same compound, the “ATCC90113 MIC-0” value (C. neoformans ATCC 90113; [6]) was > 50 µg/mL.
In the case of COC(=O)[C@@H]1C[C@@H]2c3cc([N+](=O)[O-])cc4c3[C@@H](CN4)C[C@H]2N(C)C1 [NGx14], the MIC (C. neoformans ATCC 36556; [1]) is reported as 50 µg/mL, the MIC (C. neoformans ATCC 36556; [2]) is reported as > 50 µg/mL and the MIC (C. neoformans ATCC 90113; [3]) is reported as > 50 µg/mL. The MIC (C. neoformans ATCC 90113; [4]) was > 50 µg/mL.
For COC(=O)C1CC2c3cc(O)cc4c3C(CC2N(C)C1)CN4C(C)=O (centres unmarked) [NGx12], the “ATCC36556 MIC-2” value (C. neoformans ATCC 36556; [5]) was 50 µg/mL, the MIC (C. neoformans ATCC 36556; [1]) was 25 µg/mL and the MIC (C. neoformans ATCC 36556; [2]) was > 50 µg/mL. For the same compound, the MIC (C. neoformans ATCC 90113; [3]) was > 50 µg/mL and the MIC (C. neoformans ATCC 90113; [4]) was > 50 µg/mL.
COC(=O)[C@@H]1C[C@@H]2c3cc(O)cc4c3[C@H](C[C@H]2N(C)C1)CN4C(C)=O [NGx02] was tested, and the MIC (C. neoformans ATCC 36556; [1]) was > 50 µg/mL, the MIC (C. neoformans ATCC 36556; [2]) was > 50 µg/mL and the MIC (C. neoformans ATCC 90113; [3]) was > 50 µg/mL. The MIC (C. neoformans ATCC 90113; [4]) was > 50 µg/mL.
For COC(=O)[C@@H]1C[C@@H]2c3cc(N)cc4c3[C@H](C[C@H]2N(C)C1)CN4C(C)=O [NGx10], the MIC (C. neoformans ATCC 36556; [1]) was 25 µg/mL, the MIC (C. neoformans ATCC 36556; [2]) was > 50 µg/mL and the MIC (C. neoformans ATCC 90113; [3]) was > 50 µg/mL. For the same compound, the MIC (C. neoformans ATCC 90113; [4]) was > 50 µg/mL.
CN1C[C@H](C(=O)Nc2cccc(C(F)(F)F)c2)C[C@@H]2c3cccc4c3[C@H](C[C@H]21)CN4C(=O)OC(C)(C)C [NGx03] was tested, and the “ATCC36556 MIC-2” value (C. neoformans ATCC 36556; [5]) was 3.1 µg/mL, the MIC (C. neoformans ATCC 36556; [1]) was 3.13 µg/mL and the MIC (C. neoformans ATCC 36556; [2]) was 6.25 µg/mL. The “C. neoformans growth inhibition (in words)” value (C. neoformans ATCC 36556) was “inhibit C. neoformans growth; also recorded: scored anti-fungal activity”, the “ATCC36556 MIC-0” value (C. neoformans ATCC 36556; [6]) was 6.3 µg/mL and the MIC (C. neoformans ATCC 90113; [3]) was > 50 µg/mL. For the same compound, the MIC (C. neoformans ATCC 90113; [4]) was > 50 µg/mL.
For COC(=O)C1CC2c3cccc4c3C(CC2N(C)C1)CN4C=O (centres unmarked) [NGx17], the “ATCC36556 MIC-2” value (C. neoformans ATCC 36556; [5]) was > 50 µg/mL, the MIC (C. neoformans ATCC 36556; [1]) was 50 µg/mL and the MIC (C. neoformans ATCC 36556; [2]) was > 50 µg/mL. For the same compound, the MIC (C. neoformans ATCC 90113; [3]) was > 50 µg/mL and the MIC (C. neoformans ATCC 90113; [4]) was > 50 µg/mL.
COC(=O)[C@@H]1C[C@@H]2c3cc(OCc4ccccc4)cc4c3[C@H](C[C@H]2N(C)C1)CN4C(C)=O [NGx08] was tested, and the “ATCC36556 MIC-2” value (C. neoformans ATCC 36556; [5]) was 25 µg/mL, the MIC (C. neoformans ATCC 36556; [1]) was 50 µg/mL and the MIC (C. neoformans ATCC 36556; [2]) was > 50 µg/mL. The MIC (C. neoformans ATCC 90113; [3]) was > 50 µg/mL and the MIC (C. neoformans ATCC 90113; [4]) was > 50 µg/mL.
In the case of CN1C[C@H](C(=O)Nc2ccccc2)C[C@@H]2c3c(O)ccc4c3[C@H](C[C@H]21)CN4C(=O)OC(C)(C)C [NGx07], the MIC (C. neoformans ATCC 36556; [1]) is reported as 6.3 µg/mL, the MIC (C. neoformans ATCC 36556; [2]) is reported as > 50 µg/mL and the “C. neoformans growth inhibition (in words)” value (C. neoformans ATCC 36556) is reported as “inhibit C. neoformans growth; also recorded: scored anti-fungal activity”. The MIC (C. neoformans ATCC 90113; [3]) was 13 µg/mL and the MIC (C. neoformans ATCC 90113; [4]) was > 50 µg/mL.
